The values below come from patent US20230043863A1, “HETEROAROMATIC DERIVATIVES FOR USE AS REGULATOR, PREPARATION METHOD THEREFOR AND USE THEREOF” (JIANGSU HANSOH PHARMACEUTICAL GROUP CO., LTD., priority 2018, published 2023).

For orientation: IC50 means the concentration at which inhibition is half-maximal.

For assay [1], the target named is TYK2 (Homo sapiens, UniProt P29597). The assay can be described thus: JAK kinase activity inhibition, TR-FRET (TYK2). The class given is biochemical. To be noted: TR-FRET kinase assay. As for the experimental part: (§1) Experimental objective: The objective of this test is to test the inhibitory effect of the compound on JAK kinase activity.
(§2) Experimental method: the fluorescence resonance energy transfer (TR-FRET) method was used to test the inhibitory effect of the compound on JAK kinase activity, and the half inhibitory concentration IC50 of the compound on JAK kinase activity was obtained.
(§3) Kinase reaction was carried out in a white 384-well plate (PerkinElmer). 1-5 μL of different concentrations of the compound diluted with DMSO and ddH2O was added into each well, and 1-5 μL of the corresponding solvent was added to the positive control wells, followed by addition of 0.1-20 nM JAK kinase solution diluted with 1-5 μL of kinase buffer (HEPES 50-250 mM, MgCl2 5-20 mM, etc.) was added to each well. 1-5 μL of kinase buffer was added to the negative control well. 1-5 μL of substrate mixture containing peptide substrate and ATP was added. The plate was incubated at room temperature for 0.5-5 hours. […], EDTA and detection solution containing labeled antibody was added, and then the plate was incubated at room temperature for another 1-24 hours. The fluorescence signal value at about 620 nm and 665 nm of each well was measured by BioTek Synergy H1 plate reader, and the inhibition rate was calculated by the fluorescence signal value. According to the inhibition rate of different concentrations, the IC50 of the compound was obtained by curve fitting.
(§4) The percentage inhibition data of the wells treated with the compound was calculated with the positive control wells (DMSO control wells) and negative control wells (no kinase added) on the plate {% inhibition rate=100-[(test compound value-negative control value)]/(Positive control value-negative control value)×100}. IC50 value was calculated by using GraphPad prism to fit the data of different concentrations and corresponding percentage inhibition rates to a 4-parameter non-linear logic formula.
A general note: Time-resolved FRET reads energy transfer from a long-lived donor to a nearby acceptor.

In assay [2] the target is JAK1 (Homo sapiens, UniProt P23458). The assay can be described thus: JAK kinase activity inhibition, TR-FRET (JAK1). It counts as biochemical. To be noted: TR-FRET kinase assay. As for the experimental part:
as §1, §2, §3, §4

Sequence of TYK2 (P29597 whole entry): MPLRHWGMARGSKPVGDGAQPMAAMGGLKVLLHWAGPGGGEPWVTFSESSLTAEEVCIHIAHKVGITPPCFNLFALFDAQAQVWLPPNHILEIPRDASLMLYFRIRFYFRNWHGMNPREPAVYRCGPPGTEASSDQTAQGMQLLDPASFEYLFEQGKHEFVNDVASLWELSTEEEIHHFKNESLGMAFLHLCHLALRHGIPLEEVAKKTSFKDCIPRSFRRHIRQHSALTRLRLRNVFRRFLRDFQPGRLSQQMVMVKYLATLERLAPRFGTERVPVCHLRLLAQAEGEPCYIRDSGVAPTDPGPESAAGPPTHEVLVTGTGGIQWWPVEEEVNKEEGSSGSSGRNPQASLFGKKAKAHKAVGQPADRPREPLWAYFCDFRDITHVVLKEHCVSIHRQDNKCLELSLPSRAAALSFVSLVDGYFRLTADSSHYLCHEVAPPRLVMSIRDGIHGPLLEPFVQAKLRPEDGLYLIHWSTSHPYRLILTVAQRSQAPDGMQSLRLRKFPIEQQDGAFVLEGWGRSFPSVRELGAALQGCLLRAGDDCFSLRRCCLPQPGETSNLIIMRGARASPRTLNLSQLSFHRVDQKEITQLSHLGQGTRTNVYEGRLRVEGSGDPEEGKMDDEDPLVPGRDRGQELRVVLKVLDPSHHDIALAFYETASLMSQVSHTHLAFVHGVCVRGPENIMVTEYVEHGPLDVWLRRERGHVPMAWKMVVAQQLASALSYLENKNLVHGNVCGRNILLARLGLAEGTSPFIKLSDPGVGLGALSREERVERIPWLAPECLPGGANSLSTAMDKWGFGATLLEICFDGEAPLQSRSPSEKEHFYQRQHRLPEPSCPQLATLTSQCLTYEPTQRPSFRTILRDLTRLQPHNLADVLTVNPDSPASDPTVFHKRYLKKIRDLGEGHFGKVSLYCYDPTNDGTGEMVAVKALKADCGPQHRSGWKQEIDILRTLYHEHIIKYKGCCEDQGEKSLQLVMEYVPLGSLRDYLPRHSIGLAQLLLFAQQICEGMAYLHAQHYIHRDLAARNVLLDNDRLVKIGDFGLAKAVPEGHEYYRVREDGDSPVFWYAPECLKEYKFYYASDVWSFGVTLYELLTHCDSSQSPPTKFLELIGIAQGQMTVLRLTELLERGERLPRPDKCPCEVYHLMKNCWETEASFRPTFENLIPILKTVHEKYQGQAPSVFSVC
Sequence of JAK1 (P23458 whole entry): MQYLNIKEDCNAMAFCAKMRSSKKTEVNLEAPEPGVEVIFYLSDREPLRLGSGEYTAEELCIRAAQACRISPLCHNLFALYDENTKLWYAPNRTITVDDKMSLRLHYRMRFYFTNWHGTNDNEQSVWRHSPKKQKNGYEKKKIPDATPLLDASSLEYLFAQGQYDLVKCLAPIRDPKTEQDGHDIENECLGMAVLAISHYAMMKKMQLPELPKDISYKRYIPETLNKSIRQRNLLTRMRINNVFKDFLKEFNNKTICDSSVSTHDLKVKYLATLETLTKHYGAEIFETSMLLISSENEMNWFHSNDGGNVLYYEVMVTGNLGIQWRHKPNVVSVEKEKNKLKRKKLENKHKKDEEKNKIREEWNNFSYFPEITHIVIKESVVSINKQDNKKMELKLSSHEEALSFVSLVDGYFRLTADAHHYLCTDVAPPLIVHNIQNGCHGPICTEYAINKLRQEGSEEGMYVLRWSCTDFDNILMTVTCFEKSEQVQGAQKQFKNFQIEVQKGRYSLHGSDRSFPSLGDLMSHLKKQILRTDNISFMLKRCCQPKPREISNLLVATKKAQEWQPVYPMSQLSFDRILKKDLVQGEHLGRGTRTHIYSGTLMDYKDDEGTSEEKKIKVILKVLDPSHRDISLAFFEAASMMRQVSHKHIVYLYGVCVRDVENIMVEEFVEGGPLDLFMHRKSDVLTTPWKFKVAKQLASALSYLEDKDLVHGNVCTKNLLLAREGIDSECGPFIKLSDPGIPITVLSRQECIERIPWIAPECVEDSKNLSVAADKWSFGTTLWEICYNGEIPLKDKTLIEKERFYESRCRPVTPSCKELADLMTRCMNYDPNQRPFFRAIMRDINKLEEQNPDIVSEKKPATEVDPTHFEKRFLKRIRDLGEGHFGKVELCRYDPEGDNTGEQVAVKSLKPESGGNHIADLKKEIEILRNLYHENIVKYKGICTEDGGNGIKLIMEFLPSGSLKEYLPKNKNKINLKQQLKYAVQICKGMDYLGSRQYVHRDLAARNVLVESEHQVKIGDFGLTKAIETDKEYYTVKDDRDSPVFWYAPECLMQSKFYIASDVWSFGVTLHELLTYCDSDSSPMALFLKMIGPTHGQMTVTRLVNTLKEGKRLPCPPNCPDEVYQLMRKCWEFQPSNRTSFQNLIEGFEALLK

For the compound `COCCS(=O)(=O)N1[C@@H]2CC[C@H]1C[C@H](Nc1nc(Nc3cc(C)[nH]n3)c3ccccc3n1)C2` [Embodiment 233, N2-((3-exo)-8-((2-methoxylethyl)sulfonyl)-8-azabicyclo[3.2.1]oct-3-yl)-N4-(5-methyl-1H-pyrazol-3-yl)quinazolin-2,4-diamine], the IC50 in assay [1] was found to be 2.09 nM; in assay [2], 3.55 nM.

As to `N#CCCN1[C@@H]2CC[C@H]1C[C@H](Nc1nc(Nc3ncc(CCO)s3)cc3ncccc13)C2` [Embodiment 161, 3-((3-exo)-3-((7-((5-(2-hydroxylethyl)thiazol-2-yl)amino)-1,6-diazanaphthalen-5-yl)amino)-8-azabicyclo[3.2.1]oct-8-yl)propionitrile], the IC50 in assay [1] is 35 nM; in assay [2], 20.8 nM.

With `Cc1cc(Nc2nc(N[C@@H]3C[C@H]4CC[C@@H](C3)N4C(=O)c3cccnc3)nc3ccccc23)n[nH]1` [Embodiment 227, ((3-exo)-3-((4-((5-methyl-1H-pyrazol-3-yl)amino)quinazolin-2-yl)amino)-8-azabicyclo[3.2.1]oct-8-yl)(pyridin-3-yl)methanone], the half-inhibitory concentration (IC50) in assay [1] was 4.77 nM; in assay [2], 5.17 nM.

In the case of `CC(C)(O)c1cnc(Nc2cc3ncccc3c(N[C@@H]3C[C@H]4CC[C@@H](C3)N4CCC#N)n2)s1` [Embodiment 31, 3-((3-exo)-3-((7-((5-(e2-hydroxypropan-2-yl)thiazol-2-yl)amino)-1,6-diazanaphthalen-5-yl)amino)-8-azabicyclo[3.2.1]oct-8-yl)propionitrile], the concentration for half-maximal inhibition (IC50) is greater than 100 nM in assay [1] and 48.6 nM in assay [2].

With `Cc1cc(Nc2nc(N[C@@H]3C[C@H]4CC[C@@H](C3)N4S(=O)(=O)c3ccccn3)nc3sccc23)n[nH]1` [Embodiment 266, N4-(5-methyl-1H-pyrazol-3-yl)-N2-((3-exo)-8-(pyridin-2-ylsulfonyl)-8-azabicyclo[3.2.1]oct-3-yl)thieno[2,3-d]pyrimidin-2,4-diamine], the values for the concentration for half-maximal inhibition (IC50) in assay [1] and in assay [2] were 10.2 nM and 10.5 nM, respectively.

Turning to `Cc1cc(Nc2nc(N[C@@H]3C[C@H]4CC[C@@H](C3)N4CCC#N)nc3c(Cl)cccc23)n[nH]1` [Embodiment 177, 3-((3-exo)-3-((8-chloro-4-((5-methyl-1H-pyrazol-3-yl)amino)quinazolin-2-yl)amino)-8-azabicyclo[3.2.1]oct-8-yl)propionitrile], the IC50 is 1.58 nM in assay [1] and 3.36 nM in assay [2].

On to `Cc1cc(Nc2nc(N[C@@H]3C[C@H]4CC[C@@H](C3)N4CCC#N)nc3c(C)cccc23)n[nH]1` [Embodiment 176, 3-((3-exo)-3-((8-methyl-4-((5-methyl-1H-pyrazol-3-yl)amino)quinazolin-2-yl)amino)-8-azabicyclo[3.2.1]oct-8-yl)propionitrile], for which the 50% inhibitory concentration (IC50) in assay [1] turned out to be 2.36 nM; in assay [2], 4.18 nM.

As for `Cc1cc(Nc2nc(N[C@@H]3C[C@H]4CC[C@@H](C3)N4CCC#N)nc3ncccc23)n[nH]1` [Embodiment 89, 3-((3-exo)-3-((4-((5-methyl-1H-pyrazol-3-yl)amino)pyrido[2,3-d]pyrimidin-2-yl)amino)-8-azabicyclo[3.2.1]oct-8-yl)propionitrile], the IC50 was determined as 0.15 nM in assay [1] and 0.65 nM in assay [2].

Take `N#CCCN1[C@@H]2CC[C@H]1C[C@H](Nc1nc(Nc3cc(C4CC4)[nH]n3)cc3ncccc13)C2` [Embodiment 12, 3-((3-exo)-3-((7-((5-cyclopropyl-1H-pyrazol-3-yl)amino)-1,6-diazanaphthalen-5-yl)amino)-8-azabicyclo[3.2.1]oct-8-yl)propionitrile]: the half-inhibitory concentration (IC50) in assay [1] was determined as 10.1 nM; in assay [2] it was 2.71 nM.

Regarding `Cc1cc(Nc2nc(N[C@@H]3C[C@H]4CC[C@@H](C3)N4CCC#N)nc3cc(-c4ccncc4)ccc23)n[nH]1` [Embodiment 180, 3-((3-exo)-3-((4-((5-methyl-1H-pyrazol-3-yl)amino)-7-(pyridin-4-yl)quinazolin-2-yl)amino)-8-azabicyclo[3.2.1]oct-8-yl)propionitrile], the concentration for half-maximal inhibition (IC50) was found to be 0.56 nM in assay [1] and 0.35 nM in assay [2].

`Cc1cc(Nc2nc(N[C@@H]3C[C@H]4CC[C@@H](C3)N4C(=O)c3ccncc3)nc3ccccc23)n[nH]1` [Embodiment 228, ((3-exo)-3-((4-((5-methyl-1H-pyrazol-3-yl)amino)quinazolin-2-yl)amino)-8-azabicyclo[3.2.1]oct-8-yl)(pyridin-4-yl)methanone]: the IC50 in assay [1] worked out at 9.99 nM; in assay [2], 2.63 nM.

As for `Cc1cc(Nc2nc(N[C@@H]3C[C@H]4CC[C@@H](C3)N4CCC#N)nc3[nH]ncc23)n[nH]1` [Embodiment 51, 3-((3-exo)-3-((4-((5-methyl-1H-pyrazol-3-yl)amino)-1H-pyrazolo[3,4-d]pyrimidin-6-yl)amino)-8-azabicyclo[3.2.1]oct-8-yl)propionitrile], the IC50 in assay [1] and in assay [2] was 0.24 nM throughout.

Regarding `Cc1cnc(Nc2nc(N[C@@H]3C[C@H]4CC[C@@H](C3)N4S(=O)(=O)N3CC(C#N)C3)nc3ccccc23)s1` [Embodiment 221, 1-(((3-exo)-3-((4-((5-methylthioazole-2-yl)amino)quinazolin-2-yl)amino)-8-azabicyclo[3.2.1]oct-8-yl)sulfonyl)azetindin-3-formonitrile], the IC50 in assay [1] is 1.26 nM; in assay [2] it was 0.79 nM.

As for `Cc1cc(Nc2nc(N[C@@H]3C[C@H]4CC[C@@H](C3)N4S(=O)(=O)N3CC(C#N)C3)nc3cc(C)sc23)n[nH]1` [Embodiment 286, 1-(((3-exo)-3-((6-methyl-4-((5-methyl-1H-pyrazol-3-yl)amino)thieno[3,2-d]pyrimidin-2-yl)amino)-8-azabicyclo[3.2.1]oct-8-yl)sulfonyl)azetindin-3-formonitrile], the IC50 was determined as 14 nM in assay [1] and 0.06 nM in assay [2].

Regarding `Cc1cc(Nc2nc(N[C@@H]3C[C@H]4CC[C@@H](C3)N4C(=O)[C@@H]3CCCN3)nc3sccc23)n[nH]1` [Embodiment 249, ((3-exo)-3-((4-((5-methyl-1H-pyrazol-3-yl)amino)thieno[2,3-d]pyrimidin-2-yl)amino)-9-azabicyclo[3.3.1]non-9-yl) ((S)-pyrrolidin-2-yl)methanone], the IC50 in assay [1] came to 0.28 nM; in assay [2], 1.88 nM.

`N#CCCN1[C@@H]2CC[C@H]1C[C@H](Nc1nc(Nc3ncc(C(N)=O)s3)cc3ncccc13)C2` [Embodiment 35, 2-((5-(((3-exo)-8-(2-cyanoethyl)-8-azabicyclo[3.2.1]oct-3-yl)amino)-1,6-diazanaphthalen-7-yl)amino)thiazol-5-formamide]: the IC50 in assay [1] worked out at 22.2 nM; in assay [2], 5.6 nM.

On to `Cc1cc(Nc2nc(N[C@@H]3C[C@H]4CC[C@@H](C3)N4CCC#N)nc3cc(-c4cnn(C5CC5)c4)ccc23)n[nH]1` [Embodiment 185, 3-((3-exo)-3-((7-(1-cyclopropyl-1H-pyrazol-4-yl)-4-((5-methyl-1H-pyrazol-3-yl)amino)quinazolin-2-yl)amino)-8-azabicyclo[3.2.1]oct-8-yl)propionitrile], for which the figures for the IC50 in assay [1] and in assay [2] were 0.6 nM and 0.29 nM, respectively.

With `Cc1cc(Nc2nc(N[C@@H]3C[C@H]4CC[C@@H](C3)N4S(=O)(=O)c3cccnc3)nc3ccccc23)n[nH]1` [Embodiment 232], the values for the IC50 in assay [1] and in assay [2] were 2 nM and 7.2 nM, respectively.

Turning to `O=C(CN1CCCCC1)N1[C@@H]2CC[C@H]1C[C@H](Nc1nc(Nc3ncc(CO)s3)cc3ncccc13)C2` [Embodiment 165, 1-((3-exo)-3-((7-((5-(hydroxymethyl)thiazol-2-yl)amino)-1,6-diazanaphthalen-5-yl)amino)-8-azabicyclo[3.2.1]oct-8-yl)-2-(piperidin-1-yl)ethane-1-one], the 50% inhibitory concentration (IC50) in assay [1] was greater than 100 nM; in assay [2] it was 4.92 nM.

Turning to `Cc1cc(Nc2nc(N[C@@H]3C[C@@H]4CN(CCC#N)C[C@@H]4C3)nc3ccccc23)n[nH]1` [Embodiment 300, 3-(cis-5-((4-((5-methyl-1H-pyrazol-3-yl)amino)quinazolin-2-yl)amino)hexahydrocyclopentadieno[c]pyrrole-2(1H)-yl)propionitrile], the values for the IC50 in assay [1] and in assay [2] were 14.7 nM and 5.11 nM, respectively.

Consider `COc1cncc(-c2ccc3c(Nc4cc(C)[nH]n4)nc(N[C@@H]4C[C@H]5CC[C@@H](C4)N5CCC#N)nc3c2)c1` [Embodiment 182], for which the concentration for half-maximal inhibition (IC50) in assay [1] worked out at 0.25 nM; in assay [2], 0.37 nM.

`Cc1cc(Nc2nc(N[C@@H]3C[C@H]4CC[C@@H](C3)N4CCF)nc3ccccc23)n[nH]1` [Embodiment 234]: the IC50 in assay [1] is 7.11 nM; in assay [2], 112 nM.

Consider `Cc1cc(Nc2nc(NC3CCN(S(=O)(=O)N4CC(C#N)C4)CC3)nc3sccc23)n[nH]1` [Embodiment 302, 1-((4-((4-((5-methyl-1H-pyrazol-3-yl)amino)thieno[2,3-d]pyrimidin-2-yl)amino)piperidin-1-yl)sulfonyl)azetindin-3-formonitrile], for which the IC50 in assay [1] was determined as 0.34 nM; in assay [2] it was 1.89 nM.
